How the values were obtained:
IB3-1 cells = test: Cell proliferation assay on IB3-1 cells; format: cell-based; conditions: Homo sapiens, cell number/ml after 48 h of treatment
Description: Monolayers of 60% confluent IB3-1 cells were seeded in 24- or 12-well plates in LHC-8 medium in the presence of 5% FBS. After 24 h, TMA derivatives were added at serial dilutions and incubated for further 2-3 days. The effects of compounds (TMA derivatives) on the cell proliferation were analyzed as elsewhere described. A first analysis was performed with serial dilutions to obtain 50 μM, 200 μM, and 800 μM solutions. In order to determine IC50 values, the following concentrations were used 12.5, 25, 50, 100, 200, and 800 μM. In order to prepare the cells for counting, they were washed with PBS 1X and detached with trypsin/EDTA. Cells were suspended in physiological solution and counted with a Z2 Coulter Counter (Coulter Electronics, Hialeah, FL, USA). The cell number/ml was determined as IC50 after 2 days of culture, when untreated cells are in log phase of cell growth.
In order to obtain preliminary information on the biological properties of TMA derivatives, their effects on cell growth were examined on IB3-1 cell line, excellent biological model to study new potential anti-inflammatory molecules. The use of this cell line to study the expression of proinflammatory molecules under a variety of stimuli is well established. Monolayers of 60% confluent IB3-1 cells were seeded in 12-well plate in LHC-8 medium with 5% FBS. After 24 h, compounds were added at different concentrations and the cell number/ml was determined after further 48 h of culture.

NF-κB p50 = target: T1, NF-κB p50 (Homo sapiens, UniProt P19838); test: EMSA, inhibition of NF-κB/DNA interactions; format: binding; conditions: NF-κB p50 and 32P-labeled NF-κB oligonucleotide, MIC = minimal inhibitory concentration, 12.5 μM was the lowest concentration used
T1 construct: This assay was performed using purified NF-κB p50; purchased Promega
T1 sequence (P19838 1-433 limits assumed): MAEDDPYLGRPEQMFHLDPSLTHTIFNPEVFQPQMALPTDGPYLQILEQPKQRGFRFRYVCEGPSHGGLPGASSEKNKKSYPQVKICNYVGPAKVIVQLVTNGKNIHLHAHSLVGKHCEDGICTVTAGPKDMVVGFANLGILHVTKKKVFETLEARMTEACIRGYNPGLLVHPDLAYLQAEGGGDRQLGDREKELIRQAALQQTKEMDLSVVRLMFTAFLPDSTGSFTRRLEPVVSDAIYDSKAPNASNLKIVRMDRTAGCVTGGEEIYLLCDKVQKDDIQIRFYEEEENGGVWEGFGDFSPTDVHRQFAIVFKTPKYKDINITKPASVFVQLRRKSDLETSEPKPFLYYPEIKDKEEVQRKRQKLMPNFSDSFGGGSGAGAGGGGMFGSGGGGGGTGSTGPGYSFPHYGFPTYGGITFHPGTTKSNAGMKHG
Description: Electrophoretic mobility shift assays were performed using double-stranded ^32P-labeled oligonucleotides as target DNA. Binding reactions were set up as previously described in binding buffer (10% glycerol, 0.05% NP-40, 10 mM Tris-HCl pH 7.5, 50 mM NaCl, 0.5 mM DTT, and 10 mM MgCl2), in the presence of 0.1 μl/20 μl of NF-κB p50 (50 gsu) (Promega, Madison, WI, USA) and 0.25 ng of labeled oligonucleotide, in a total volume of 20 μl. After 30 min binding at room temperature, samples were electrophoresed at constant voltage (200 V for 30 min) through a low ionic strength (0.25 TBE buffer) (1 TBE/40.089 M Tris-borate, 0.002 M EDTA) on 6% polyacrylamide gels until the tracking dye (bromophenol blue) reached the bottom of a 16 cm slab. Gels were dried and exposed for autoradiography with intensifying screens at […]. In these experiments, DNA/protein complexes migrate through the gel with slower efficiency. In studies on the inhibitors of protein/DNA interactions, addition of the reagents was as follows: (i) nuclear factors, (ii) active principles, (iii) binding buffer, and (iv) labeled oligonucleotides mimicking the binding sites for TF to be modulated. The nucleotide sequence of double-stranded target DNA utilized in these experiments was 5′-CGC TGG GGA CTT TCC ACG G-3′ (sense strand, NF-κB). The synthetic oligonucleotides utilized in this study were purchased from Sigma Genosys (Sigma Genosys, Cambs, UK). To calculate the effective concentrations, three different autoradiograms obtained from different time exposures were scanned and compared to control EMSA performed without addition of angelicin analogues (two independent experiments were performed).
The effects of TMA derivatives on NF-κB- (nuclear factor-kappaB-) mediated induction of proinflammatory genes was verified first in vitro by electrophoretic mobility shift assay (EMSA) with the aim to verify and quantify the possible inhibition of NF-κB/DNA interactions. This assay was performed using purified NF-κB p50 and ^32P-labeled target NF-κB double-stranded oligonucleotide mimicking the NF-κB consensus sequence present within the IL-8 gene promoter.

IL-8 = test: Bioplex analysis of IL-8 release in TNF-α-induced IB3-1 cells; format: cell-based, human; conditions: 1 μM, compared to untreated TNF-α-stimulated IB3-1 cells, 5 h pretreatment then TNF-α 24 h
Description: (§1) The Bioplex cytokine assay is designed for the multiplexed quantitative measurement of multiple cytokines in a single well using as little as 50 μl of sample. In our experiments, the premixed multiplex beads (27-plex) of the Bioplex human cytokines were used. 50 μl of cytokine standards or samples (supernatants recovered from treated cells and diluted to 2 μg/μl) were incubated with 50 μl of anticytokine conjugated beads in 96-well filter plates for 30 min at room temperature with shaking. Plates were washed by vacuum filtration three times with 100 μl of Bioplex wash buffer, 25 μl of diluted detection antibody were added, and plates were incubated for 30 min at room temperature with shaking. After three filter washes, 50 μl of streptavidin-phycoerythrin were added, and the plates were incubated for 10 min at room temperature with shaking. Finally, plates were washed by vacuum filtration three times, beads were suspended in Bioplex assay buffer, and samples were analyzed on a Bio-Rad 96-well plate reader using the Bioplex Suspension Array System and Bioplex Manager software (Bio-Rad Laboratories Inc., Hercules, CA).
(§2) In order to verify the effects on the secretion of IL-8 by IB3-1 cells, Luminex technology was employed to detect and quantify proteins secreted into the medium. […]

IP-10 = test: Bioplex analysis of IP-10 secretion in TNF-α-induced IB3-1 cells; format: cell-based, human; conditions: 1 μM, TNF-α-stimulated IB3-1 cells, three independent experiments
Description: as §1, §2

Q: Which IC50 (IB3-1 cells) does the source give for `Cc1oc2c(C)cc3c(C)cc(=O)oc3c2c1C` [Compound 1] here?
A: The IC50 was greater than 800 µM.

Q: And the “Inhibition of NF-κB/DNA complex (MIC)” value (NF-κB p50)?
A: The value was <12.5 (^∗) μM.

Q: And the “Reduction of IL-8 secretion” value (IL-8)?
A: The value was “about 50%”.

Q: What about the “Increase of TNF-α-inducible IP-10” value (IP-10) of the same compound?
A: Its value is “more than twofold”.
